Usually IC50 stands for the concentration that inhibits the measured activity by half. Read a low IC50 as greater potency in that assay.

Some results are limits rather than exact numbers.

This test in a line: Half maximal inhibition of binding of [125I]CCK-8 to Cholecystokinin type B receptor in guinea pig cerebral cortex.
Consider `O=C(Cc1ccc(C(F)(F)F)cc1C(F)(F)F)N[C@@H]1N=C(c2ccccc2)c2ccccc2N(CC(F)(F)F)C1=O` [2-(2,4-Bis-trifluoromethyl-phenyl)-N-[(R)-2-oxo-5-phenyl-1-(2,2,2-trifluoro-ethyl)-2,3-dihydro-1H-benzo[e][1,4]diazepin-3-yl]-acetamide], for which the IC50 is greater than 1 µM. With `O=C(Cc1ccc(C(F)(F)F)cc1C(F)(F)F)N[C@H]1N=C(c2ccccc2)c2ccccc2N(CC(F)(F)F)C1=O` [2-(2,4-Bis-trifluoromethyl-phenyl)-N-[(S)-2-oxo-5-phenyl-1-(2,2,2-trifluoro-ethyl)-2,3-dihydro-1H-benzo[e][1,4]diazepin-3-yl]-acetamide] the figure was greater than 1 µM; with `CC(C)N1C(=O)[C@H](NC(=O)Cc2cc(Cl)cc(Cl)c2)N=C(c2ccccc2)c2ccccc21` [2-(3,5-Dichloro-phenyl)-N-((R)-1-isopropyl-2-oxo-5-phenyl-2,3-dihydro-1H-benzo[e][1,4]diazepin-3-yl)-acetamide], greater than 1 µM; with `CN1C(=O)[C@H](NC(=O)C(N)Cc2ccccc2)N=C(c2ccccc2)c2ccccc21` (stereo partly drawn) [2-Amino-N-((R)-1-methyl-2-oxo-5-phenyl-2,3-dihydro-1H-benzo[e][1,4]diazepin-3-yl)-3-phenyl-propionamide], greater than 1 µM.

`CN1C(=O)[C@H](NC(=O)CCc2ccc(Cl)cc2Cl)N=C(c2ccccc2)c2ccccc21` [3-(2,4-Dichloro-phenyl)-N-((R)-1-methyl-2-oxo-5-phenyl-2,3-dihydro-1H-benzo[e][1,4]diazepin-3-yl)-propionamide] displayed a concentration for half-maximal inhibition (IC50) greater than 1 µM. With `CN(C)CCN1C(=O)C(NC(=O)CCc2ccc(Cl)cc2Cl)N=C(c2ccccc2)c2ccccc21` (centres undefined) [3-(2,4-Dichloro-phenyl)-N-[1-(2-dimethylamino-ethyl)-2-oxo-5-phenyl-2,3-dihydro-1H-benzo[e][1,4]diazepin-3-yl]-propionamide] the figure was greater than 1 µM. Molecule `CC(=O)Nc1ccc(CCC(=O)N[C@@H]2N=C(c3ccccc3)c3ccccc3N(C)C2=O)cc1` [3-(4-Acetylamino-phenyl)-N-((R)-1-methyl-2-oxo-5-phenyl-2,3-dihydro-1H-benzo[e][1,4]diazepin-3-yl)-propionamide] displayed an IC50 greater than 1 µM.

The molecule `CN1C(=O)[C@H](NC(=O)CCc2ccc(N)cc2)N=C(c2ccccc2)c2ccccc21` [3-(4-Amino-phenyl)-N-((R)-1-methyl-2-oxo-5-phenyl-2,3-dihydro-1H-benzo[e][1,4]diazepin-3-yl)-propionamide] yielded a half-maximal inhibitory concentration (IC50) greater than 1 µM. For the molecule `CC(C)N1C(=O)[C@H](NC(=O)CCC2CCCCC2)N=C(c2ccccc2)c2ccccc21` [3-Cyclohexyl-N-((R)-1-isopropyl-2-oxo-5-phenyl-2,3-dihydro-1H-benzo[e][1,4]diazepin-3-yl)-propionamide], the 50% inhibitory concentration (IC50) was greater than 1 µM.

Take `CN1C(=O)[C@H](NC(=O)CCC2CCCCC2)N=C(c2ccccc2)c2ccccc21` [3-Cyclohexyl-N-((R)-1-methyl-2-oxo-5-phenyl-2,3-dihydro-1H-benzo[e][1,4]diazepin-3-yl)-propionamide]: the IC50 was greater than 1 µM.

As for `CN1C(=O)[C@H](NC(=O)/C=C/c2ccc(Cl)cc2Cl)N=C(c2ccccc2)c2ccccc21` [(E)-3-(2,4-Dichloro-phenyl)-N-((R)-1-methyl-2-oxo-5-phenyl-2,3-dihydro-1H-benzo[e][1,4]diazepin-3-yl)-acrylamide], the IC50 is greater than 1 µM. As for `CN1C(=O)[C@H](NC(=O)CCc2ccccc2)N=C(c2ccccc2)c2ccccc21` [(R)-N-(1-methyl-2-oxo-5-phenyl-2,3-dihydro-1H-benzo[e][1,4]diazepin-3-yl)-3-phenylpropanamide], the figure is greater than 1 µM; as for `CN1C(=O)[C@H](NC(=O)Cc2ccccc2)N=C(c2ccccc2)c2ccccc21` [N-((R)-1-Methyl-2-oxo-5-phenyl-2,3-dihydro-1H-benzo[e][1,4]diazepin-3-yl)-2-phenyl-acetamide], greater than 1 µM; as for `CN1C(=O)[C@H](NC(=O)c2ccccc2)N=C(c2ccccc2)c2ccccc21` [N-((R)-1-Methyl-2-oxo-5-phenyl-2,3-dihydro-1H-benzo[e][1,4]diazepin-3-yl)-benzamide], greater than 1 µM.
